Read-outs that look alike come from different tables or passages of the source.

2 compounds from PMC8964833, “Identification of cell wall synthesis inhibitors active against Mycobacterium tuberculosis by competitive activity-based protein profiling” (Cell Chemical Biology, 2022) can be followed below.

For test [1], the target named is T1, Pks13 (Mycobacterium tuberculosis, UniProt I6X8D2). The test can be described thus: cell-based. The following applies: Mycobacterium tuberculosis H37Rv, read-out: % inhibition.
T1 sequence (I6X8D2 whole entry, looked up): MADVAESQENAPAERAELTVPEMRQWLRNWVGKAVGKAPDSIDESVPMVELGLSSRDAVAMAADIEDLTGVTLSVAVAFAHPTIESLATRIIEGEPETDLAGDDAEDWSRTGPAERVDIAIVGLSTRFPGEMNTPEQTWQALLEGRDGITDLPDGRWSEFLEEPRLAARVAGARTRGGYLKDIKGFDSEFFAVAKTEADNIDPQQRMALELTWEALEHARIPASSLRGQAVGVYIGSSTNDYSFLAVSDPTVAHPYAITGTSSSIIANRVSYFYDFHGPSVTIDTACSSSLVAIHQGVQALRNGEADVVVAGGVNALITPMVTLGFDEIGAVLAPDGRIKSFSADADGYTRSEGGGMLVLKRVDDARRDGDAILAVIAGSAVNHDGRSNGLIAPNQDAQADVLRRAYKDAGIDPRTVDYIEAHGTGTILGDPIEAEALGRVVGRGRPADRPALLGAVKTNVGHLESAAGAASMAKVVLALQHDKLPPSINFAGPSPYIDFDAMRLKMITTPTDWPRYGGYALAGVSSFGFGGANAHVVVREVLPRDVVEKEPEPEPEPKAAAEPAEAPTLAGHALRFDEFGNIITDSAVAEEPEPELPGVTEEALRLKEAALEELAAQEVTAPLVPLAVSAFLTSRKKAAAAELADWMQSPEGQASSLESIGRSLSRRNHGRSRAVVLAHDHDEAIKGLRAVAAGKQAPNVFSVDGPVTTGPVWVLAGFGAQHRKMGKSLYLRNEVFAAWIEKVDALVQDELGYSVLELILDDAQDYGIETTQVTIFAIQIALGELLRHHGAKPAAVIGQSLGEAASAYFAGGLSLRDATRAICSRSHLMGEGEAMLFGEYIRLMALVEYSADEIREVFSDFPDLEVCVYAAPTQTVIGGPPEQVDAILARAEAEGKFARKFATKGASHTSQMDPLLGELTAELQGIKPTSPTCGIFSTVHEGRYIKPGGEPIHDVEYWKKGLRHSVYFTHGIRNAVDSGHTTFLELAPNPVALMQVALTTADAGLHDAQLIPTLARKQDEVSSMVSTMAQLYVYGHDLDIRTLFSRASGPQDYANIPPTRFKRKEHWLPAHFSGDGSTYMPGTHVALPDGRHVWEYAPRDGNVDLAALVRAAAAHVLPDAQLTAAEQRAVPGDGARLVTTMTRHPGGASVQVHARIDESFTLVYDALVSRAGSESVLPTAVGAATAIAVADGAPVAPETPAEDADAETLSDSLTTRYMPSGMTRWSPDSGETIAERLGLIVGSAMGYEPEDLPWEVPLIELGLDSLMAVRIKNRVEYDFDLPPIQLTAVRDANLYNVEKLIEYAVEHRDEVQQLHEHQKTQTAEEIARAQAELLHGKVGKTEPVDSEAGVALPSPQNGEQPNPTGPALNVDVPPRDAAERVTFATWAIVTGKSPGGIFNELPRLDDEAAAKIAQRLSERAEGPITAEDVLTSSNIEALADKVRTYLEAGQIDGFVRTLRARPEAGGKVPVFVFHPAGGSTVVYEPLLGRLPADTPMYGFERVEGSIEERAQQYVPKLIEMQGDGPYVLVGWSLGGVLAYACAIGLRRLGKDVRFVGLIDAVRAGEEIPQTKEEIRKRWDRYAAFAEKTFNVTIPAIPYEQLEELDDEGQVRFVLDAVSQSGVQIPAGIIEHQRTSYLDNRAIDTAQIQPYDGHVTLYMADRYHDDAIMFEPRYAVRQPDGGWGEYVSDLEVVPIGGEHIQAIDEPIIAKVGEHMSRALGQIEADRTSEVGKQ
The target of test [2] is T1, Pks13. Briefly: cell-based. The following applies: Mycobacterium tuberculosis H37Rv, read-out: % inhibition. This is another data set of the same source.

Turning to `CC(C)(O)c1cnn(C(=O)N2CCC(C(C)(C)C)CC2)n1` [AA692-(2,4), AA692], the inhibition at 13 µM in test [1] was 0%; in test [2], 18%. As for `CC(C)(O)c1cnn(C(=O)N2CCCCC2)n1` [AA702], the inhibition at 13 µM in test [2] came to 0%.
